Experimental data from patent US20130023589A1, “MEDICATION FOR THERAPY OR PROPHYLAXIS OF ASTHMA” (priority 2011, published 2013).

Tests used:
[1] = test system: primary human bronchial smooth cells (BSMC); experiment: WST-1 cell proliferation assay of BSMCs cocultured with DBP-treated BEAS-2B cells; type: cell-based; settings: 5 μM ginger compound for 1 hour, then coculture with DBP-BEAS for 72 hours; groups A2-7 to A2-10, FIG. 7
Experimental: (§1) With reference to FIG. 5, the plasticizers-treated bronchial smooth muscle cells are prepared by processing two steps. In the first step, a plasticizer-treated bronchial epithelial cell line is obtained by harvesting a human bronchial epithelial cell line in a chemical plasticizer at 37±1° C. for 6 hours, with each 100 mm incubating plate receiving 2×10^6 cells and with the treatment of the chemical plasticizer to induce the excretion of proinflammatory cytokines in the human bronchial epithelial cell line, such as IL-8 and RANTES, followed by removing the chemical plasticizer from the human bronchial epithelial cell line, reincubating the human bronchial epithelial cell lines in a culturing medium for 24 hours, and finally collecting the supernatants to obtain plasticizers-treated bronchial epithelial cells of the present invention. In specification, the chemical plasticizer of the present invention can be selected from a group of butylbenzyl phthalate (BBP), bis-(2-ethylhexyl) phthalate (BEHP), dibutyl phthalate (DBP) and diethyl phthalate (DEP), and with the concentration of 0.1 to 5.0 μM.
(§2) In the second step, the plasticizer-treated bronchial epithelial cells obtained from the first step are coincubated with a human bronchial smooth muscle cell line to obtain the plasticizer-treated bronchial smooth muscle cells of the present invention. […]
Additionally, with reference to TABLE 2, the BSMCs are placed and preincubated in 96-well culture plates for 24 hours, followed by randomly assigning into 10 groups including A2-1 to A2-10 to carry out various treatments between 10 groups. […] After the various treatments of each group, the proliferation degrees of BSMCs in each group are determined by Premixed WST-1 Cell Proliferation Reagent (Clontech Laboratories Inc., Mountain View, Calif.).

[2] = test system: primary human bronchial smooth cells (BSMC); experiment: QCM Chemotaxis cell migration assay of BSMCs cocultured with DBP-treated BEAS-2B cells; type: cell-based; settings: 5 μM ginger compound, then coculture with DBP-BEAS for 24 hours; groups A1-7 to A1-10, FIG. 6
Experimental: as §1, §2
With reference of TABLE 1, the BSMCs are previously seeded into a migration chamber for 24 hours, with the BSMCs placing on the surface of the migration chamber, and randomly assigned into 10 groups including A1-1 to A1-10 to carry out various treatments between 10 groups. […] After the treatments, the BSMCs of the groups A1-1 to A1-10 are analyzed by a QCM Chemotaxis […] cell migration assay system (Chemicon, Temecula, Calif.; Millipore Corp, Bedford, Mass.), with the BSMCs in each group being stained, lysed and finally quantified on a microplate at 560 nm. […]

SMILES | plasticizer-induced airway remodeling: proliferation of BSMCs [1] | plasticizer-induced airway remodeling: migration of BSMCs [2]
CCCCC[C@H](O)CC(=O)CCc1ccc(O)c(OC)c1 [[6]-gingerol] | sufficient in suppressing | sufficient in suppressing
CCCCC/C=C/C(=O)CCc1ccc(O)c(OC)c1 [[6]-shogaol] | sufficient in suppressing | sufficient in suppressing
CCCCCCCCC[C@H](O)CC(=O)CCc1ccc(O)c(OC)c1 [[10]-gingerol] | sufficient in suppressing | sufficient in suppressing
